From ChEMBL document CHEMBL1146444, “RKS-1778, a new mammalian cell-cycle inhibitor and a key intermediate of the [11]cytochalasin group” (J Nat Prod, 1997)
The source made the active and inactive calls. The rule behind the calls is not given here.

How the values were obtained:
[1] = Cell cycle arrest in mouse temperature-sensitive FT210 cells by accumulation at M phase at 2.0 uM by flow cytometry; assay type: functional, cell-based
[2] = Cell cycle arrest in mouse temperature-sensitive FT210 cells by accumulation at M phase at 2.1 uM by flow cytometry; assay type: functional, cell-based

| Structure (SMILES) | Activity [1] | Activity [2] |
| --- | --- | --- |
| CC(=O)O[C@@H]1/C=C/[C@](C)(O)C[C@@H](C)C/C=C/[C@H]2C=C(C)[C@@H](C)[C@H]3[C@H](Cc4ccccc4)NC(=O)[C@]321 | Active | Active |
| CC(=O)O[C@@H]1/C=C/[C@](C)(O)C[C@@H](C)C/C=C/[C@H]2[C@@H]3O[C@]3(C)[C@@H](C)[C@H]3[C@H](Cc4ccccc4)NC(=O)[C@@]312 | Active | Active |
